Reference: PMC9968125, “Secondary Metabolites with Anti-Inflammatory Activity from Laurencia majuscula Collected in the Red Sea” (Marine Drugs, 2023)
“Also recorded” adds a separate entry of the source.

Test system: RAW 264.7 cells
Assay: MTT assay, cytostatic activity on RAW 264.7 cells
Format: cell-based, mouse
Conditions: RAW 264.7, 24, 48 and 72 h
Method: In order to verify that the anti-inflammatory activity observed was not due to a potential cytostatic effect of the metabolites, an MTT assay was performed in cells exposed to increasing concentrations of metabolites 1, 2, 4–8, 10, 12–16, 18 and 20–22 for 24, 48 and 72 h (Table 3, Figure 5). The time point that the cytostatic activity was observed reflected its potency since cytotoxicity is a cumulative process.
Mouse macrophage RAW 264.7 cell line was cultured in DMEM medium (cat. # 21885-025, Gibco) supplemented with 10% v/v heat-inactivated fetal bovine serum (cat. # 10270-106, Gibco) and 1% v/v penicillin-streptomycin (cat. # 15070-063, Gibco). Cells were grown in stable conditions, 37 °C and 5% CO2, in a CO2 cell culture sterile incubator. In compound treatments, each compound tested was diluted in Carbowax^TM 400 + 10% abs. ethanol (E/0650DF/17, Fisher chemical), serving also as the control solvent. The final concentration of ethanol in cell culture was 0.01% v/v and of Carbowax^TM 400 0.1% v/v independently of the compound dilution prepared. Macrophage activation was performed using 100 ng/mL LPS (L2630, Sigma) and, in the case of compound-treated cells, macrophages were pre-treated for 1 h with the respective compounds before LPS stimulation.
5 × 10^3 RAW 264.7 mouse macrophages per sample were seeded in 96-well plates (one plate per measurement) and cultured overnight. Cells were treated with the respective compound concentration and incubated for 24, 48 or 72 h. The number of cells was measured prior to treatment and used as normalization control. Thiazolyl Blue Tetrazolium Bromide (MTT) (A2231.001, Applichem) was added to the cells in a final concentration of 500 µg/mL and then cells were incubated at 37 °C plus 5% CO2 for 4 h. The supernatant was removed, and cells were lysed in a mix of 100 μL of isopropanol with 0.4% HCl. The absorbance of each sample was measured using an automated microplate reader (Infinite 200 PRO, Tecan) at 600 nm. The average OD of each treated sample was normalized to the OD of the control sample.

| Compound | cytostatic activity above the stated concentration |
| --- | --- |
| CC1(C)[C@H](O)CC[C@@]1(C)c1ccc(CO)cc1 [Compound 13, cuparene-3,12-diol] | above 50 μM |
| CCCCCCCCCCCC/C=C(\Cl)C=O [Compound 22, (2Z)-2-chloro-pentadec-2-enal] | > 3.125 µM |
| CC1=CC[C@@H](Br)C(C)(C)[C@]12CC[C@](C)(Cl)[C@@H](Br)C2 [Compound 16, 2,10-dibromo-3-chloro-a-chamigrene] | above 25 μM |
| C#CC=CC(Cl)C1C2CC3OC(OC)(C(Br)CC)C1C3O2 (centres unmarked) [Compound 2, Maneonene G] | above 25 μM |
| C=C1[C@](C)(O)CC[C@@]1(C)c1ccc(CO)cc1 [Compound 12, laur-2-ene-3,12-diol] | above 50 μM |
| C[C@@]12O[C@]1(C)CC[C@@]2(C)c1ccc(CO)cc1 (relative stereo) [Compound 10, (1S*,2S*,3R*)-2,3-epoxy-15-hydroxydihydroisolaurene] | above 50 μM |
| C#CC=CC(Cl)C1C2CC3OC(OC)(C(Br)CC)C1C3O2 (centres unmarked) [Compound 1, Maneonene F] | did not exhibit any cytostatic activity; also recorded: did not show any cytostatic effect |
| CC(=O)CC[C@](C)(C(C)=O)c1ccc(CO)cc1 (single isomer, unassigned) [Compound 14, 2,3-dioxo-15-hydroxy-seco-laurene] | above 25 μM |
| CC1=C(C)[C@](C)(c2ccc(CBr)cc2)CC1 (single isomer, unassigned) [Compound 8, 15-bromoisolaurene] | above 25 μM |
| C=CC(C)(O)CC[C@@H]1C(=C)CC[C@H](Br)C1(C)C (stereo partly drawn) [Compound 15, β-snyderol] | above 25 μM |
| CC1CCC(O)C2=CCC3C(C3(C)C)C21C (stereo not drawn) [Compound 20, aristol-9-en-1α-ol] | above 50 μM |
| C#C/C=C\[C@@H](Cl)[C@H]1[C@@H]2/C(=C(/Br)CC)O[C@@H]3C[C@H]1O[C@H]23 [Compound 4, cis-maneonene D] | did not exhibit any cytostatic activity; also recorded: no significant cytostatic activity |
| CC1=C(C)[C@](C)(c2ccc(C)cc2)CC1=O (stereo in doubt) [Compound 7, 4-oxoisolaurene] | above 25 μM |

Same assay, conditions: RAW 264.7, at 72 h, n.a. = no cytostatic activity observed at the concentrations tested

| Compound | Cytostatic Activity [µM] |
| --- | --- |
| CC1(C)[C@H](O)CC[C@@]1(C)c1ccc(CO)cc1 [Compound 13, cuparene-3,12-diol] | > 50 |
| C=C1CCC(Br)C(C)(C)C12CCC1(C)C(Br)CCC(C)(O)C1C2 (centres unmarked) [Compound 21, kahukuene B] | > 25 |
| CCCCCCCCCCCC/C=C(\Cl)C=O [Compound 22, (2Z)-2-chloro-pentadec-2-enal] | > 3.12 |
| CC1=CC[C@@H](Br)C(C)(C)[C@]12CC[C@](C)(Cl)[C@@H](Br)C2 [Compound 16, 2,10-dibromo-3-chloro-a-chamigrene] | > 25 |
| C#CC=CC(Cl)C1C2CC3OC(OC)(C(Br)CC)C1C3O2 (centres unmarked) [Compound 2, Maneonene G] | > 25 |
| C=C1[C@](C)(O)CC[C@@]1(C)c1ccc(CO)cc1 [Compound 12, laur-2-ene-3,12-diol] | > 50 |
| C[C@@]12O[C@]1(C)CC[C@@]2(C)c1ccc(CO)cc1 (relative stereo) [Compound 10, (1S*,2S*,3R*)-2,3-epoxy-15-hydroxydihydroisolaurene] | > 50 |
| CC(=O)CC[C@](C)(C(C)=O)c1ccc(CO)cc1 (single isomer, unassigned) [Compound 14, 2,3-dioxo-15-hydroxy-seco-laurene] | > 25 |
| CC1=C(C)[C@](C)(c2ccc(CBr)cc2)CC1 (single isomer, unassigned) [Compound 8, 15-bromoisolaurene] | > 25 |
| C=CC(C)(O)CC[C@@H]1C(=C)CC[C@H](Br)C1(C)C (stereo partly drawn) [Compound 15, β-snyderol] | > 25 |
| CC1=C(C)[C@](C)(c2ccc(C)cc2)CC1 [Compound 6, isolaurene] | > 50 |
| C#C/C=C\CC(Br)[C@@H]1C[C@@H](OC(C)=O)[C@H](CCCCC)O1 (relative stereo) [Compound 5, (3Z,7S*,9R*,10S*)-9-acetoxy-6-bromo-7,10-epoxypentadec-3-en-1-yne] | > 50 |
| CC1CCC(O)C2=CCC3C(C3(C)C)C21C (stereo not drawn) [Compound 20, aristol-9-en-1α-ol] | > 50 |
| CC1=C(C)[C@](C)(c2ccc(C)cc2)CC1=O (stereo in doubt) [Compound 7, 4-oxoisolaurene] | > 25 |

Test system: nitric oxide (NO) production in LPS-activated RAW 264.7 macrophages
Assay: Suppression of NO release (Griess reaction) in LPS/TLR4-activated RAW 264.7 macrophages
Format: cell-based, mouse
Conditions: LPS-activated RAW 264.7; activity only at this concentration
Method: The anti-inflammatory activity of metabolites 1, 2, 4–8, 10, 12–16, 18 and 20–22 was evaluated using the RAW 264.7 macrophage cell line, which has been proven to be a powerful tool for the detection of bioactivity of natural products. The bioactivity of compounds 3, 9, 11, 17 and 19 was not evaluated since they were either proven unstable or isolated in insufficient amounts. RAW 264.7 macrophages were stimulated with the TLR4 ligand LPS, which triggers a pro-inflammatory signal that induces nitric oxide (NO) production, and […] with increasing concentrations of the tested metabolites. The detection of NO was achieved using Griess reaction 48 h following cell activation and was used to determine the IC50 values. Inhibition of NO production was determined by comparing metabolite-treated cells with cells exposed to the vehicle solvent only (0.1% v/v Carbowax^TM 400 and 0.01% v/v ethanol). […] Mouse macrophage RAW 264.7 cell line was cultured in DMEM medium (cat. # 21885-025, Gibco) supplemented with 10% v/v heat-inactivated fetal bovine serum (cat. # 10270-106, Gibco) and 1% v/v penicillin-streptomycin (cat. # 15070-063, Gibco). Cells were grown in stable conditions, 37 °C and 5% CO2, in a CO2 cell culture sterile incubator. In compound treatments, each compound tested was diluted in Carbowax^TM 400 + 10% abs. ethanol (E/0650DF/17, Fisher chemical), serving also as the control solvent. The final concentration of ethanol in cell culture was 0.01% v/v and of Carbowax^TM 400 0.1% v/v independently of the compound dilution prepared. Macrophage activation was performed using 100 ng/mL LPS (L2630, Sigma) and, in the case of compound-treated cells, macrophages were pre-treated for 1 h with the respective compounds before LPS stimulation. 30 × 10^4 RAW 264.7 mouse macrophages per sample were cultured overnight in 24-well plates. The following day, cells were pre-treated for 1 h with the respective compound concentration and then activated using LPS (100 ng/mL) for 48 h. The amount of nitrite, an oxidative product of NO, released in each culture supernatant was measured using Griess reaction. Accordingly, 50 µL of sulfanilamide solution (1% sulfanilamide in 5% H3PO4) was added to 50 µL of cell culture supernatant and the mix was incubated for 5 min at room temperature. Then, 50 µL of NED solution (0.1% N-1-napthylethylenediamine dihydrochlorite in H2O) was added and the absorbance was measured at 540 nm using an automated microplate reader (Infinite 200 PRO, Tecan). All incubations were performed in the dark and the nitrite concentration was estimated using a sodium nitrite standard curve.

| Compound | concentration at which significant NO reduction was observed [µM] |
| --- | --- |
| CC1=C(C)[C@](C)(c2ccc(C)cc2)CC1 [Compound 6, isolaurene] | 62.5 |

Same assay, conditions: Mus musculus, RAW264.7, RAW 264.7 macrophages, 1 h pre-treatment, LPS 100 ng/mL, Griess reaction at 48 h; read-out: Inhibition of NO Production (IC50)

| IC50 [µM] | Compound |
| --- | --- |
| 23.8 | CC1(C)[C@H](O)CC[C@@]1(C)c1ccc(CO)cc1 [Compound 13, cuparene-3,12-diol] |
| 6.66 | C=C1CCC(Br)C(C)(C)C12CCC1(C)C(Br)CCC(C)(O)C1C2 (centres unmarked) [Compound 21, kahukuene B] |
| 13.2 | CCCCCCCCCCCC/C=C(\Cl)C=O [Compound 22, (2Z)-2-chloro-pentadec-2-enal] |
| 4.97 | CC1=CC[C@@H](Br)C(C)(C)[C@]12CC[C@](C)(Cl)[C@@H](Br)C2 [Compound 16, 2,10-dibromo-3-chloro-a-chamigrene] |
| 45.2 | C=C1[C@](C)(O)CC[C@@]1(C)c1ccc(CO)cc1 [Compound 12, laur-2-ene-3,12-diol] |
| 20.5 | C[C@@]12O[C@]1(C)CC[C@@]2(C)c1ccc(CO)cc1 (relative stereo) [Compound 10, (1S*,2S*,3R*)-2,3-epoxy-15-hydroxydihydroisolaurene] |
| 10.2 | C#CC=CC(Cl)C1C2CC3OC(OC)(C(Br)CC)C1C3O2 (centres unmarked) [Compound 1, Maneonene F] |
| 22.7 | CC(=O)CC[C@](C)(C(C)=O)c1ccc(CO)cc1 (single isomer, unassigned) [Compound 14, 2,3-dioxo-15-hydroxy-seco-laurene] |
| 6.92 | CC1=C(C)[C@](C)(c2ccc(CBr)cc2)CC1 (single isomer, unassigned) [Compound 8, 15-bromoisolaurene] |
| 33.1 | C=CC(C)(O)CC[C@@H]1C(=C)CC[C@H](Br)C1(C)C (stereo partly drawn) [Compound 15, β-snyderol] |
| 3.55 | CC1=CC[C@H](C)[C@](C)(O)[C@@]12CC[C@@](C)(Cl)[C@H](Br)C2 [Compound 18, compositacin A] |
| > 62.5 | CC1=C(C)[C@](C)(c2ccc(C)cc2)CC1 [Compound 6, isolaurene] |
| 10.5 | CC1CCC(O)C2=CCC3C(C3(C)C)C21C (stereo not drawn) [Compound 20, aristol-9-en-1α-ol] |
| 8.91 | C#C/C=C\[C@@H](Cl)[C@H]1[C@@H]2/C(=C(/Br)CC)O[C@@H]3C[C@H]1O[C@H]23 [Compound 4, cis-maneonene D] |
| 25.3 | CC1=C(C)[C@](C)(c2ccc(C)cc2)CC1=O (stereo in doubt) [Compound 7, 4-oxoisolaurene] |

| Compound | IC50 [µM] |
| --- | --- |
| C#C/C=C\CC(Br)[C@@H]1C[C@@H](OC(C)=O)[C@H](CCCCC)O1 (relative stereo) [Compound 5, (3Z,7S*,9R*,10S*)-9-acetoxy-6-bromo-7,10-epoxypentadec-3-en-1-yne] | 3.69 |

Same assay, conditions: RAW 264.7 macrophages, 1 h pre-treatment, LPS 100 ng/mL, Griess reaction at 48 h; read-out: Inhibition of NO Production (IC50)

| IC50 [µM] | Compound |
| --- | --- |
| 12.7 | C#CC=CC(Cl)C1C2CC3OC(OC)(C(Br)CC)C1C3O2 (centres unmarked) [Compound 2, Maneonene G] |

Test system: not listed separately
Assay: Chemical stability of the isolated compound upon standing
Format: physicochemical
Conditions: upon standing after isolation

| stability of the isolated compound, in words | Compound |
| --- | --- |
| unstable | C#CC=CC(Cl)C1C2CC3OC(OC)(C(Br)CC)C1C3O2 (centres unmarked) [Compound 3, Maneonene H] |
| quite unstable | Cc1ccc([C@]2(C)CC[C@@]3(C)O[C@]32C)cc1 (relative stereo) [Compound 11, (1S*,2S*,3R*)-2,3-epoxydihydroisolaurene] |
